Assay results reported in ChEMBL document CHEMBL3352414, “Structure based inhibitor design targeting glycogen phosphorylase B. Virtual screening, synthesis, biochemical and biological assessment of novel N-acyl-β-d-glucopyranosylamines” (Bioorg Med Chem, 2014).

Legend:
[1] = target: T1, Glycogen phosphorylase, muscle form (Oryctolagus cuniculus, UniProt P00489); test: Inhibition of rabbit skeletal muscle glycogen phosphorylase b assessed as inorganic phosphate release
T1 sequence (P00489 whole entry): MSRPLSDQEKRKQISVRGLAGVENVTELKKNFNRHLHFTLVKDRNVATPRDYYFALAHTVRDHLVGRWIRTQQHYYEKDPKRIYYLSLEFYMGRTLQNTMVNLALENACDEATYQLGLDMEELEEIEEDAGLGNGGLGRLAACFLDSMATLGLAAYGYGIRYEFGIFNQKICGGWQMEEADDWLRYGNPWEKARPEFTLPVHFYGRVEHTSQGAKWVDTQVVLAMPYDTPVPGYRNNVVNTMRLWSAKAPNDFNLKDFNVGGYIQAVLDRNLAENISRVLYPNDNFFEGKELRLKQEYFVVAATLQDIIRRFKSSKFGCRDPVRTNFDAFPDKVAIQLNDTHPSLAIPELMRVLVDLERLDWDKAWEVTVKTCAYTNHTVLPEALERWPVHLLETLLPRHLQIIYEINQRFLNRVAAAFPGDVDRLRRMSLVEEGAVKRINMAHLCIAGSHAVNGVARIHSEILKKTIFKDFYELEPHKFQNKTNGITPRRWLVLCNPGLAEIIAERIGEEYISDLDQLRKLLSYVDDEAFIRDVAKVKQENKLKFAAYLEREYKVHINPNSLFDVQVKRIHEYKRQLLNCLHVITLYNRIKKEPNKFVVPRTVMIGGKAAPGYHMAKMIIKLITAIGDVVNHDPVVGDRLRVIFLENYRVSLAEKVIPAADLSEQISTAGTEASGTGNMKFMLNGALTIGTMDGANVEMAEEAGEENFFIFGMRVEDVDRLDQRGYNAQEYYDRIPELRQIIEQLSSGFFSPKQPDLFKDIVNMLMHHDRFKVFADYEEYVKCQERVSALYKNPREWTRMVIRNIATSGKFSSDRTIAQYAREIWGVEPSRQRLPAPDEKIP

[2] = Octanol water partition coefficient, logP of the compound; format: physicochemical
[3] = Permeability in human Caco2 cells; format: ADME, cell-based; settings: Caco-2, read-out: permeability

Compound | Ki ([1]; read-out: Ki) [µM] | logP [2] | Papp [3] [×10⁻⁶ cm/s] | Ki [1]
O=C(Nc1ccc2ccccc2c1)C(=O)N[C@@H]1O[C@H](CO)[C@@H](O)[C@H](O)[C@H]1O | 56 | – | – | –
N[C@@H](Cc1c[nH]c2ccccc12)C(=O)N[C@@H]1O[C@H](CO)[C@@H](O)[C@H](O)[C@H]1O | – | -2.1 | 0.4 | –
N[C@H](Cc1c[nH]c2ccccc12)C(=O)N[C@@H]1O[C@H](CO)[C@@H](O)[C@H](O)[C@H]1O | – | -2.09 | 0.47 | –
COc1ccc(/C=C/C(=O)N[C@@H]2O[C@H](CO)[C@@H](O)[C@H](O)[C@H]2O)c(O)c1 | – | -0.958 | 3.89 | –
O=C(Nc1ccccc1)C(=O)N[C@@H]1O[C@H](CO)[C@@H](O)[C@H](O)[C@H]1O | 100 | – | – | –
CCc1ccc(/C=C/C(=O)N[C@@H]2O[C@H](CO)[C@@H](O)[C@H](O)[C@H]2O)cc1 | – | 0.04 | 9.47 | –
O=C1Cc2ccc(Cl)cc2C=C1C(=O)N[C@@H]1O[C@H](CO)[C@@H](O)[C@H](O)[C@H]1O | – | -0.221 | 3.85 | –
O=C(Nc1cccc2ccccc12)C(=O)N[C@@H]1O[C@H](CO)[C@@H](O)[C@H](O)[C@H]1O | 144 | – | – | –
O=C(NC(=O)c1ccc(C(F)(F)F)cc1)N[C@@H]1O[C@H](CO)[C@@H](O)[C@H](O)[C@H]1O | 1.8 | – | – | –
O=C(/C=C/c1ccccc1)N[C@@H]1O[C@H](CO)[C@@H](O)[C@H](O)[C@H]1O | 18 | – | – | –
CC(C)c1ccc(C[C@H](C)C(=O)N[C@@H]2O[C@H](CO)[C@@H](O)[C@H](O)[C@H]2O)cc1 | 75.3 | 0.01 | 7.67 | –
CC(C)(C)c1ccc(C(=O)NC(=O)N[C@@H]2O[C@H](CO)[C@@H](O)[C@H](O)[C@H]2O)cc1 | 0.7 | – | – | –
O=C(N[C@@H]1O[C@H](CO)[C@@H](O)[C@H](O)[C@H]1O)c1ccccc1 | 81 | – | – | –
O=C(C#Cc1ccccc1)N[C@@H]1O[C@H](CO)[C@@H](O)[C@H](O)[C@H]1O | 61 | – | – | –
O=C(N[C@@H]1O[C@H](CO)[C@@H](O)[C@H](O)[C@H]1O)[C@H](O)[C@@H](O)[C@H](O)[C@H](O)CO | 341 | – | – | –
O=C(O)C(=O)N[C@@H]1O[C@H](CO)[C@@H](O)[C@H](O)[C@H]1O | 710 | – | – | –
O=C(N[C@@H]1O[C@H](CO)[C@@H](O)[C@H](O)[C@H]1O)C1=Cc2cc(Cl)ccc2OC1 | – | -0.169 | 9.4 | –
CC(C)(Oc1ccc2ccccc2c1)C(=O)N[C@@H]1O[C@H](CO)[C@@H](O)[C@H](O)[C@H]1O | – | 0.037 | 10.6 | –
COC(=O)C(=O)N[C@@H]1O[C@H](CO)[C@@H](O)[C@H](O)[C@H]1O | 210 | – | – | –
O=C(N[C@@H]1O[C@H](CO)[C@@H](O)[C@H](O)[C@H]1O)c1cccc2ccccc12 | 10 | – | – | –

Compound | Ki ([1]; read-out: Ki) [µM] | logP [2] | Papp [3] [×10⁻⁶ cm/s] | Ki [1]
C[C@@H](Cc1ccc(C(C)(C)C)cc1)C(=O)N[C@@H]1O[C@H](CO)[C@@H](O)[C@H](O)[C@H]1O | – | 0.379 | 10 | –
CCOC(=O)C(=O)N[C@@H]1O[C@H](CO)[C@@H](O)[C@H](O)[C@H]1O | 920 | – | – | –
COC(=O)CCCC(=O)N[C@@H]1O[C@H](CO)[C@@H](O)[C@H](O)[C@H]1O | 83 | – | – | –
COC(=O)c1ccc(/C=C/C(=O)N[C@@H]2O[C@H](CO)[C@@H](O)[C@H](O)[C@H]2O)cc1 | – | -0.805 | 2.63 | –
O=C(Nc1ccccn1)C(=O)N[C@@H]1O[C@H](CO)[C@@H](O)[C@H](O)[C@H]1O | 230 | – | – | –
CC(C)(C)c1ccc(/C=C/C(=O)N[C@@H]2O[C@H](CO)[C@@H](O)[C@H](O)[C@H]2O)cc1 | – | 0.496 | 8.77 | –
CCc1ccc([C@H](C)CC(=O)N[C@@H]2O[C@H](CO)[C@@H](O)[C@H](O)[C@H]2O)cc1 | 377 | -0.162 | 8.9 | –
O=C(N[C@@H]1O[C@H](CO)[C@@H](O)[C@H](O)[C@H]1O)C(F)(F)F | 81 | – | – | –
O=C(NC(=O)c1cc2ccccc2[nH]1)N[C@@H]1O[C@H](CO)[C@@H](O)[C@H](O)[C@H]1O | 4 | – | – | –
CC(C)c1ccc([C@@H](C)CC(=O)N[C@@H]2O[C@H](CO)[C@@H](O)[C@H](O)[C@H]2O)cc1 | – | 0.075 | 7.87 | –
CC(=O)N[C@@H]1O[C@H](CO)[C@@H](O)[C@H](O)[C@H]1O | 32 | – | – | –
COC(=O)CCC(=O)N[C@@H]1O[C@H](CO)[C@@H](O)[C@H](O)[C@H]1O | 170 | – | – | –
COC(=O)c1cccc(C(=O)N[C@@H]2O[C@H](CO)[C@@H](O)[C@H](O)[C@H]2O)c1 | 580 | – | – | –
O=C(/C=C/c1ccc2ccccc2c1)N[C@@H]1O[C@H](CO)[C@@H](O)[C@H](O)[C@H]1O | 3.5 | – | – | –
O=C(Cn1cc(-c2ccccc2)nn1)N[C@@H]1O[C@H](CO)[C@@H](O)[C@H](O)[C@H]1O | 180 | – | – | –
COc1cc(/C=C/C(=O)N[C@@H]2O[C@H](CO)[C@@H](O)[C@H](O)[C@H]2O)cc(OC)c1 | – | -0.36 | 8 | –
O=C(C[C@H]1CC(=O)c2c(F)cc(F)cc21)N[C@@H]1O[C@H](CO)[C@@H](O)[C@H](O)[C@H]1O | – | -1.21 | 3.17 | –
O=C(NC1CC1)C(=O)N[C@@H]1O[C@H](CO)[C@@H](O)[C@H](O)[C@H]1O | 1410 | – | – | –
O=C(Cc1ccccc1)NC(=O)N[C@@H]1O[C@H](CO)[C@@H](O)[C@H](O)[C@H]1O | 600 | – | – | –
O=C(CCc1ncc(-c2ccccc2)o1)N[C@@H]1O[C@H](CO)[C@@H](O)[C@H](O)[C@H]1O | – | -0.915 | 3.65 | –

Compound | Ki ([1]; read-out: Ki) [µM] | logP [2] | Papp [3] [×10⁻⁶ cm/s] | Ki [1]
CC(C)N(C(=O)C(=O)N[C@@H]1O[C@H](CO)[C@@H](O)[C@H](O)[C@H]1O)C(C)C | – | – | – | Not Active
CC(C)(C(=O)N[C@@H]1O[C@H](CO)[C@@H](O)[C@H](O)[C@H]1O)c1cccc2ccccc12 | – | 0.085 | 14.7 | –
O=C(N[C@@H]1O[C@H](CO)[C@@H](O)[C@H](O)[C@H]1O)C(c1ccccc1)c1ccccc1 | – | – | – | Not Active
C[C@H](CC(=O)N[C@@H]1O[C@H](CO)[C@@H](O)[C@H](O)[C@H]1O)c1ccc(C(C)(C)C)cc1 | – | 0.33 | 9.77 | –
COC(=O)c1ccc(C(=O)N[C@@H]2O[C@H](CO)[C@@H](O)[C@H](O)[C@H]2O)cc1 | 329 | – | – | –
O=C(N[C@@H]1O[C@H](CO)[C@@H](O)[C@H](O)[C@H]1O)[C@H](O)[C@@H](O)[C@@H](O)[C@H](O)CO | 225 | – | – | –
O=C(C[C@H](c1ccc(Cl)cc1)C1CC1)N[C@@H]1O[C@H](CO)[C@@H](O)[C@H](O)[C@H]1O | – | 0.083 | 6.97 | –
Cc1ccc(-c2cnc(CCC(=O)N[C@@H]3O[C@H](CO)[C@@H](O)[C@H](O)[C@H]3O)o2)cc1 | – | -0.574 | 5.4 | –
O=C(CCNC(=O)c1ccc(F)c(F)c1)N[C@@H]1O[C@H](CO)[C@@H](O)[C@H](O)[C@H]1O | – | -0.807 | 3.14 | –
O=C(Nc1ccc2ccccc2c1)N[C@@H]1O[C@H](CO)[C@@H](O)[C@H](O)[C@H]1O | 5.2 | – | – | –
O=C(NC(=O)c1ccccn1)N[C@@H]1O[C@H](CO)[C@@H](O)[C@H](O)[C@H]1O | 68 | – | – | –
CC[C@H](CC(=O)N[C@@H]1O[C@H](CO)[C@@H](O)[C@H](O)[C@H]1O)c1ccc(C)c(C)c1 | – | 0.01 | 7.67 | –
Cc1ccc2c(c1)C=C(C(=O)N[C@@H]1O[C@H](CO)[C@@H](O)[C@H](O)[C@H]1O)C(=O)C2 | – | -0.451 | 3.62 | –
O=C(N[C@@H]1O[C@H](CO)[C@@H](O)[C@H](O)[C@H]1O)C1CCCCC1 | 289 | – | – | –
O=C(Nc1ccccc1)N[C@@H]1O[C@H](CO)[C@@H](O)[C@H](O)[C@H]1O | 18 | – | – | –
O=C(CCc1ccccc1)N[C@@H]1O[C@H](CO)[C@@H](O)[C@H](O)[C@H]1O | 85 | – | – | –
C[C@@H]1C[C@@]1(C(=O)N[C@@H]1O[C@H](CO)[C@@H](O)[C@H](O)[C@H]1O)c1cccc2ccccc12 | – | 0.255 | 14.5 | –
Cc1ccccc1[C@H](Cc1ccco1)C(=O)N[C@@H]1O[C@H](CO)[C@@H](O)[C@H](O)[C@H]1O | – | 0.004 | 12.2 | –
